Experiments:
[1] = test system: cancer stem cells (CD44high/CD24low) from MCF10A-ER-Src tumors; details: after 3 cycles of treatment (day 25); FIG. 4B
[2] = test system: cancer stem cells (CD44high/CD24low) and cancer cells (CD44low/CD24high) of transformed MCF-10A or MCF-7 cells; details: doxorubicin, 0.1 mM metformin, or both; FIG. 3A
[3] = test system: MCF10A ER-Src xenograft tumors
MCF10A ER-Src cells [4] = assay: Colony formation assay in soft agar (FIG. 1B); format: cell-based, human; details: TAM-treated cells
[5] = general statement; cited from earlier work
[6] = test system: MCF10A-ER-Src cancer stem cells; assay: Tumor formation in nude mice by metformin-pretreated cancer stem cells (FIG. 3C); format: in vivo; details: cells treated with 0.1 mM metformin for 1 hour prior to injection, month after injection
[7] = test system: non-transformed cells (MCF10A-ER-Src); assay: Growth of non-transformed MCF10A-ER-Src cells with metformin (FIG. 1A); format: cell-based, human; details: 0.1 or 0.3 mM metformin, 24 hours
[8] = test system: mammospheres derived from all four breast cancer cell lines (MCF10A ER-Src, MCF7, SKBR3, MDA-MB-468); assay: Mammosphere growth, 6-day old mammospheres (FIG. 2); format: cell-based, human; details: 0.1 mM metformin, within 48 hours
MCF10A ER-Src cells [9] = assay: Morphological transformation of TAM-induced MCF10A ER-Src cells (phase-contrast); format: cell-based, human; details: 0.1 mM metformin and/or TAM for 36 hours; data not shown
MCF10A-ER-Src cells [10] = assay: Mammosphere formation (FIG. 1B); format: cell-based, human; details: TAM-treated cells
[11] = test system: sorted cancer stem cells and non-stem cancer cells of MCF10A ER-Src, MCF7, SKBR3 and MDA-MB-468; assay: Growth of sorted cancer stem cells and non-stem cancer cells (FIG. 3B); format: cell-based, human; details: 0.1 mM metformin, 0, 24, 48 hours, all four cancer cell lines
MCF10A ER-Src cells [12] = assay: Wound healing motility / invasion assay; format: cell-based, human; details: 0.1 mM metformin and/or TAM; data not shown
MCF10A-ER-Src cells [13] = assay: Focus formation of TAM-treated MCF10A-ER-Src cells (FIG. 1B); format: cell-based, human

Compound | cancer stem cells in tumors [1] | killing of cancer stem cells versus cancer cells in the mixed transformed population [2] | decrease in tumor volume ([3]; after 15 days of treatment (3 cycles every 5 days, i.p.), 4 mg/kg doxorubicin) [fold] | time until tumor growth resumed after treatment ([3]; after treatment with doxorubicin alone, FIG. 4A) [days] | rate of tumor growth after relapse ([3]; compared with absence of treatment) | tumor volume after an additional 10 days ([3]; day 35) | formation of colonies in soft agar (MCF10A ER-Src cells [4]) | crossing of the blood brain barrier [5] | ability of cancer stem cells to form tumors in nude mice [6] | growth of non-transformed cells [7] | number of mammospheres [8] | morphological transformation (MCF10A ER-Src cells [9]) | effect on tumors / tumor volume ([3]; after 15 days of treatment (3 cycles every 5 days, i.p.), 4 mg/kg doxorubicin, 100 μg/ml metformin, or both) | generation of mammospheres (MCF10A-ER-Src cells [10]) | effect on sorted standard (non-stem) cancer cell population [11] | susceptibility of sorted cancer stem cells [11] | invasive growth in wound-healing assays (MCF10A ER-Src cells [12]) | focus formation (MCF10A-ER-Src cells [13])
COc1cccc2c1C(=O)c1c(O)c3c(c(O)c1C2=O)C[C@@](O)(C(=O)CO)C[C@@H]3O[C@H]1C[C@H](N)[C@H](O)[C@H](C)O1 [doxorubicin] | easily detected | kills cancer cells, but not cancer stem cells | 2 | 20 | comparable to that observed in the initial disease | further reduction in tumor volume | – | – | – | – | – | – | – | – | – | – | – | –
CN(C)C(=N)N=C(N)N [metformin] | – | preferentially killed cancer stem cells | – | – | – | – | strongly inhibited | can cross the blood brain barrier | blocked the ability of these cells to form tumors | does not affect the growth of non-transformed cells | dramatic reduction in the number of mammospheres | strongly inhibited | little effect | strongly inhibited | essentially unaffected | quite susceptible | strongly inhibited | strongly inhibited

Reference: patent US20120220664A1, “USE OF METFORMIN IN CANCER TREATMENT AND PREVENTION” (priority 2009, published 2012)
